Results from ChEMBL document CHEMBL2016574, “Substituted aminopyrimidine protein kinase B (PknB) inhibitors show activity against Mycobacterium tuberculosis” (Bioorg Med Chem Lett, 2012).
Calls of active or inactive are those of the source. The calls are words filed in the database; no cut-off is given here.

Columns and labels:
[1] = biological target: Serine/threonine-protein kinase PknG (Mycobacterium tuberculosis) (UniProt P9WI73); assay: Inhibition of Mycobacterium tuberculosis PknG
[2] = biological target: T1, Serine/threonine-protein kinase PknF (Mycobacterium tuberculosis) (UniProt P9WI75); assay: Inhibition of Mycobacterium tuberculosis PknF
T1 sequence (whole entry): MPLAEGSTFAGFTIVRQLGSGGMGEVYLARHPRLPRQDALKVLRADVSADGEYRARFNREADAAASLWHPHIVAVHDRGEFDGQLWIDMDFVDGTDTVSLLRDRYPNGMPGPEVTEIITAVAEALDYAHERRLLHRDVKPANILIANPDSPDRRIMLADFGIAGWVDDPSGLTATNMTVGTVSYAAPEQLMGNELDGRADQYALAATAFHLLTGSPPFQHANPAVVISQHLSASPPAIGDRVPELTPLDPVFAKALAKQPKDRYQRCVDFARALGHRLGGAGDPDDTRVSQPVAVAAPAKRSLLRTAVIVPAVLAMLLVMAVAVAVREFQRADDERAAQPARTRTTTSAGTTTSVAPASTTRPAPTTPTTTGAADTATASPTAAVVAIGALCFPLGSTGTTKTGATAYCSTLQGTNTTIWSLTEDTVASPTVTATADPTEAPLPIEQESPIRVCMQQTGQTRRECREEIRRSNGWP

[3] = Protein binding in plasma; type: ADME, cell-free; conditions: read-out: PPB

Chain of Serine/threonine-protein kinase PknG (Mycobacterium tuberculosis) (P9WI73 whole entry): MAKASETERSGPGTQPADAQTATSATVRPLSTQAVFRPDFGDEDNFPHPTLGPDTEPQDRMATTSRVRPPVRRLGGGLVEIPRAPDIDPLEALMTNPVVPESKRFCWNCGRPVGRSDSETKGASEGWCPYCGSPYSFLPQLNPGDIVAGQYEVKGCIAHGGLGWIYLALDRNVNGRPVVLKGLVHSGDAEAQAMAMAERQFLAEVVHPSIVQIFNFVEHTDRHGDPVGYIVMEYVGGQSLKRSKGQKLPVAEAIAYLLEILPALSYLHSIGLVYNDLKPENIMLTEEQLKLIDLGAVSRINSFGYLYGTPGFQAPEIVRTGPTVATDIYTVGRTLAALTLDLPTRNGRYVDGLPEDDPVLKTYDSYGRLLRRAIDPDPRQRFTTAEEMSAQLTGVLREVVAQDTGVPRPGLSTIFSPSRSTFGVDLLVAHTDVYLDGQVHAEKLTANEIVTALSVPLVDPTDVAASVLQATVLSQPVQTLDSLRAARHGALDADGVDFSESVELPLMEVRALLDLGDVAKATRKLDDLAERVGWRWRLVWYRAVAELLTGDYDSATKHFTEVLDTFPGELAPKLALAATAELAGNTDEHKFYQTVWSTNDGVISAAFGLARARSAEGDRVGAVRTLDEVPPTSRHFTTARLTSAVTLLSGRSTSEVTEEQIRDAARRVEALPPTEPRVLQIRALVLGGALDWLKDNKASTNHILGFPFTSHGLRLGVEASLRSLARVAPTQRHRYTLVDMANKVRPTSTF

With `CS(=O)(=O)c1cccc(-c2nccc(Nc3cc(C4CC4)[nH]n3)n2)c1` the inhibition [1] was “Active” and the inhibition [2] was “Active”.
For `c1cncc(-c2nccc(Nc3cc(C4CC4)[nH]n3)n2)c1`, the inhibition [1] was “Active” and the inhibition [2] was “Active”.
With `c1ccc2c(Nc3cc(C4CC4)[nH]n3)nc(-c3ccncc3)nc2c1` the inhibition [1] was “Active” and the inhibition [2] was “Active”.
In the case of `c1ccc(-c2nc(Nc3cc(C4CC4)n[nH]3)c3ccccc3n2)cc1`, the fraction unbound [3] is reported as < 0.01.
For `CN(C)[C@@H]1CCN(c2cc(Nc3ccccn3)nc(-c3cccc(C#N)c3)n2)C1`, the inhibition [1] was “Active” and the inhibition [2] was “Active”.
For `CN1CCC(Nc2cc(Nc3cc(C4CC4)[nH]n3)nc(-c3ccccc3)n2)CC1`, the inhibition [1] was “Active” and the inhibition [2] was “Active”.
With `c1ccc2c(Nc3cc(C4CC4)n[nH]3)nc(NCC3CC3)nc2c1` the fraction unbound [3] was < 0.01.
With `CS(=O)(=O)Nc1cccc(-c2nccc(Nc3cc(C4CC4)[nH]n3)n2)c1` the inhibition [1] was “Active” and the inhibition [2] was “Active”.
For `CN(C)[C@@H]1CCN(c2cc(Nc3cc(C4CC4)[nH]n3)nc(-c3ccccc3)n2)C1`, the inhibition [1] was “Active” and the inhibition [2] was “Active”.
With `CC(C)CCNc1nccc(Nc2cc(C3CC3)[nH]n2)n1` the inhibition [1] was “Active” and the inhibition [2] was “Active”.
In the case of `CS(=O)(=O)NCc1ccc(-c2nccc(Nc3cc(C4CC4)[nH]n3)n2)cc1`, the inhibition [1] is reported as “Active” and the inhibition [2] is reported as “Active”.
For `CN1CCN(c2cc(Nc3cc(C4CC4)[nH]n3)nc(-c3ccccc3)n2)CC1`, the inhibition [1] was “Active” and the inhibition [2] was “Active”.
For `CN1CCC(CNc2cc(Nc3cc(C4CC4)[nH]n3)nc(-c3cccc(C#N)c3)n2)CC1`, the inhibition [1] was “Active” and the inhibition [2] was “Active”.
In the case of `c1ccc(CNc2nccc(Nc3cc(C4CC4)[nH]n3)n2)cc1`, the inhibition [1] is reported as “Active” and the inhibition [2] is reported as “Active”.
With `CN(C)CCNc1cc(Nc2cc(C3CC3)[nH]n2)nc(-c2ccccc2)n1` the inhibition [1] was “Active” and the inhibition [2] was “Active”.
For `Cc1cc(Nc2nc(-c3ccc(F)cc3)nc3ccccc23)n[nH]1`, the fraction unbound [3] was < 0.01, the inhibition [1] was “Active” and the inhibition [2] was “Active”.
With `NC(=O)c1cccc(-c2nccc(Nc3cc(C4CC4)[nH]n3)n2)c1` the inhibition [1] was “Active” and the inhibition [2] was “Active”.
In the case of `Clc1ccccc1CCNc1nccc(Nc2cc(C3CC3)[nH]n2)n1`, the inhibition [1] is reported as “Active” and the inhibition [2] is reported as “Active”.
In the case of `CN(C)[C@@H]1CCN(c2cc(Nc3cc(Cl)ccn3)nc(-c3ccccc3)n2)C1`, the inhibition [1] is reported as “Active” and the inhibition [2] is reported as “Active”.
With `Fc1ccc(-c2nc(Nc3cc(C4CC4)[nH]n3)c3ccccc3n2)cc1` the inhibition [1] was “Active” and the inhibition [2] was “Active”.
For `Fc1ccc(-c2nc(Nc3cc(C4CC4)n[nH]3)c3ccccc3n2)cc1`, the fraction unbound [3] was < 0.01.
With `c1cc(Nc2cc(C3CC3)[nH]n2)nc(NC2CCCCC2)n1` the inhibition [1] was “Active” and the inhibition [2] was “Active”.
In the case of `Fc1cccc(CCNc2nccc(Nc3cc(C4CC4)[nH]n3)n2)c1`, the inhibition [1] is reported as “Active” and the inhibition [2] is reported as “Active”.
In the case of `CN1CCC(CNc2cc(Nc3cc(C4CC4)[nH]n3)nc(-c3ccccc3)n2)CC1`, the inhibition [1] is reported as “Active” and the inhibition [2] is reported as “Active”.
With `c1cc(Nc2cc(C3CC3)[nH]n2)nc(NCC2CC2)n1` the inhibition [1] was “Active” and the inhibition [2] was “Active”.
For `COc1ccnc(Nc2cc(N3CC[C@@H](N(C)C)C3)nc(-c3ccccc3)n2)c1`, the inhibition [1] was “Active” and the inhibition [2] was “Active”.
For `CN(C)[C@@H]1CCN(c2cc(Nc3cc(C(F)(F)F)ccn3)nc(-c3cccc(C#N)c3)n2)C1`, the inhibition [1] was “Active” and the inhibition [2] was “Active”.
In the case of `c1ccc(-c2nc(Nc3cc(C4CC4)[nH]n3)c3ccccc3n2)cc1`, the inhibition [1] is reported as “Active” and the inhibition [2] is reported as “Active”.
In the case of `c1ccc2c(Nc3cc(C4CC4)[nH]n3)nc(NCC3CC3)nc2c1`, the inhibition [1] is reported as “Active” and the inhibition [2] is reported as “Active”.
With `Fc1ccc(-c2nc(Nc3cc[nH]n3)c3ccccc3n2)cc1` the fraction unbound [3] was < 0.01, the inhibition [1] was “Active” and the inhibition [2] was “Active”.
With `CN(C)CCNc1cc(Nc2cc(C3CC3)[nH]n2)nc(-c2cccc(C#N)c2)n1` the inhibition [1] was “Active” and the inhibition [2] was “Active”.
In the case of `Cc1cc(Nc2nc(-c3ccncc3)nc3ccccc23)n[nH]1`, the inhibition [1] is reported as “Active” and the inhibition [2] is reported as “Active”.
For `N#Cc1cccc(-c2nccc(Nc3cc(C4CC4)[nH]n3)n2)c1`, the inhibition [1] was “Active” and the inhibition [2] was “Active”.
In the case of `c1ccc2c(Nc3cc(C4CC4)[nH]n3)nc(NC3CCCCC3)nc2c1`, the fraction unbound [3] is reported as < 0.01, the inhibition [1] is reported as “Active” and the inhibition [2] is reported as “Active”.
With `CN1CCC(CNc2cc(Nc3cc(C4CC4)[nH]n3)nc(-c3cccc(S(C)(=O)=O)c3)n2)CC1` the inhibition [1] was “Active” and the inhibition [2] was “Active”.
In the case of `Fc1ccc(-c2nccc(Nc3cc(C4CC4)[nH]n3)n2)cc1`, the inhibition [1] is reported as “Active” and the inhibition [2] is reported as “Active”.
With `c1ccc2c(Nc3cc(C4CC4)n[nH]3)nc(-c3ccncc3)nc2c1` the fraction unbound [3] was < 0.01.
With `CN(C)[C@@H]1CCN(c2cc(Nc3cc(C4CC4)[nH]n3)nc(-c3cccc(C#N)c3)n2)C1` the inhibition [1] was “Active” and the inhibition [2] was “Active”.
For `c1ccc(-c2nc(Nc3cc(C4CC4)[nH]n3)cc(OCCN3CCCC3)n2)cc1`, the inhibition [1] was “Active” and the inhibition [2] was “Active”.
With `c1cc(Nc2cc(C3CC3)[nH]n2)nc(NC2CCCC2)n1` the inhibition [1] was “Active” and the inhibition [2] was “Active”.
